Laboratory results published in patent US11141452B2, “Bifunctional compounds for relief of pain comprising an opioid receptor agonist moiety and a NK1 receptor antagonist moiety and methods for treating pain” (THE ARIZONA BOARD OF REGENTS ON BEHALF OF THE UNIVERSITY OF …, priority 2014, dated 2021).
Non-standard residues stand in square brackets, D forms with d. Residues, ends and D or L forms follow the SMILES beside them. *: point of attachment. NH(3,5-(CF3)2-benzyl) = FC(F)(F)c1cc(CN*)cc(C(F)(F)F)c1; NMeBn(3,5-(CF3)2) = CN(Cc1cc(C(F)(F)F)cc(C(F)(F)F)c1)*; NMeF = CN[C@@H](Cc1ccccc1)C(=O)O; Orn = NCCC[C@H](N)C(=O)O

Assays:
MOR [1] = assay: Radioligand binding assay at μ opioid receptor; settings: for Log[IC50±] (μ): log IC50 ± error; for Ki^μ/Ki^δ: ratio of binding affinities MOR/DOR
Procedure: (§1) Binding affinities of these ligands were measured on radioligand binding assays. […] ([43]).

DOR = DOR (Homo sapiens, UniProt P41143); assay: Radioligand binding assay at δ opioid receptor
DOR, sequence (P41143 whole entry): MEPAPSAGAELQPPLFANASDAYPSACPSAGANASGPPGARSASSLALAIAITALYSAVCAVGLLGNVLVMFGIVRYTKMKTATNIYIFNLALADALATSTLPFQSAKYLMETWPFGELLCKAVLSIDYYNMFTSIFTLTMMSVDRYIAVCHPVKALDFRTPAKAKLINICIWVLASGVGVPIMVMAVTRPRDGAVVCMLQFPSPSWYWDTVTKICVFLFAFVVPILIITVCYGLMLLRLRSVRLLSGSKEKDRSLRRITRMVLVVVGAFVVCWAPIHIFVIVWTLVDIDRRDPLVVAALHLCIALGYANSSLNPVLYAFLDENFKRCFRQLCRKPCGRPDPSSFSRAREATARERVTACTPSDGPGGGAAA
Procedure: as §1

hNK1 = target: T1, hNK1 (Homo sapiens, UniProt P25103); assay: hNK1/CHO cell membrane radioligand binding assay ([3H]SP); settings: for Ki^hNK1/Ki^rNK1: ratio human/rat NK1
T1 construct: expressed in transfected cells; host or cells: CHO
T1 sequence (P25103 whole entry): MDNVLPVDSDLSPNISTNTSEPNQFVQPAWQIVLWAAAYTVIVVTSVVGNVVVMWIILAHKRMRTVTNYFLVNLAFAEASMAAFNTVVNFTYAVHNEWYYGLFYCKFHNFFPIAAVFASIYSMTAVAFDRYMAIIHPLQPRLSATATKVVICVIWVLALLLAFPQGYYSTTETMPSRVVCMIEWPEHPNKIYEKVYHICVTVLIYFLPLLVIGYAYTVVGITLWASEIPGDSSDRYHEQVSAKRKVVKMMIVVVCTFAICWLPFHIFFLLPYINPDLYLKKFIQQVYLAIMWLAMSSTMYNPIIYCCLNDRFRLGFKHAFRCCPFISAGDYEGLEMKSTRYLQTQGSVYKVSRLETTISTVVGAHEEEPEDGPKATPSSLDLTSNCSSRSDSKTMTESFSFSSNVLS

MOR [2] = assay: Guinea pig isolated ileum (GPI) functional assay; assay type: cell-based; settings: for IC50: agonist activity, electrically stimulated tissue, read-out: GPI (MOR) IC50
NK1R = target: T2, NK1R (Cavia porcellus, UniProt P30547); assay: GPI/LMMP functional assay at NK1R (agonist and antagonist testing); assay type: cell-based, guinea pig
T2 construct: The longitudinal muscle with myenteric plexus (LMMP) was carefully separated from the circular muscle; from tissue; host or cells: guinea pig ileum longitudinal muscle with myenteric plexus
T2 sequence (P30547 whole entry): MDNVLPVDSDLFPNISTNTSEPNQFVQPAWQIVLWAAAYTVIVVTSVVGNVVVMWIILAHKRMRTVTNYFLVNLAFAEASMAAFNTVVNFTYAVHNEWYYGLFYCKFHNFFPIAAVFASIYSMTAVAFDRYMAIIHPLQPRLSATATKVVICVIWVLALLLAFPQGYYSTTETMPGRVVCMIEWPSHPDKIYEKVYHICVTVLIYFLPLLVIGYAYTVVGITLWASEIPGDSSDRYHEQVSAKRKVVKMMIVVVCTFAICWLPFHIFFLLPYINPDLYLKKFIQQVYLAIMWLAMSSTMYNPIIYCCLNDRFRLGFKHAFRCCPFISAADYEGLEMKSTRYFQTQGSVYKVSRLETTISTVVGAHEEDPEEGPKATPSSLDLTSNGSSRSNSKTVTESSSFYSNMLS

CC(C)C[C@H](NC(=O)[C@@H]1CCCN1C(=O)[C@H](CCCN)NC(=O)[C@H](Cc1ccccc1)N(C)C(=O)CNC(=O)[C@@H](C)NC(=O)[C@@H](N)Cc1ccc(O)cc1)C(=O)N[C@@H](Cc1c[nH]c2ccccc12)C(=O)NCc1cc(C(F)(F)F)cc(C(F)(F)F)c1 [AKG173] (H-Y[dA]G[NMeF][Orn]PLW-{NH(3,5-(CF3)2-benzyl)})
Ki (MOR [1]): 5 nM
Log[IC50±] (μ) (MOR [1]): −7.95 ± 0.08
Ki^μ/Ki^δ (MOR [1]): 100/1
IC50 (DOR): 501 nM
binding selectivity for DOR over MOR (DOR): 100 times
Ki (DOR; Ki^δ (nM)): 0.05 nM
Ki (hNK1; Ki^hNK1 (nM), hNK1/CHO membranes, [3H]SP): 15.5 nM

CC(C)C[C@H](NC(=O)[C@@H]1CCCN1C(=O)[C@H](CCCCN)NC(=O)[C@H](Cc1ccccc1)N(C)C(=O)CNC(=O)[C@@H](C)NC(=O)[C@@H](N)Cc1ccc(O)cc1)C(=O)N[C@@H](Cc1c[nH]c2ccccc12)C(=O)NCc1cc(C(F)(F)F)cc(C(F)(F)F)c1 [AKG174] (H-Y[dA]G[NMeF]KPLW-{NH(3,5-(CF3)2-benzyl)}; N-terminus assumed)
Ki (MOR [1]): 8 nM
Log[IC50±] (μ) (MOR [1]): −7.81 ± 0.08

Cc1cc(O)cc(C)c1C[C@H](N)C(=O)N[C@H](C)C(=O)N(C)CC(=O)N[C@@H](Cc1ccccc1)C(=O)N1CCC[C@H]1C(=O)N[C@@H](CC(C)C)C(=O)N[C@@H](Cc1c[nH]c2ccccc12)C(=O)NCc1cc(C(F)(F)F)cc(C(F)(F)F)c1 [AKG180, H-Dmt-D-Ala-NMeGly-Phe-Pro-Leu-Trp-NH-Bn(3′,5′-(CF3)2)]
Ki^hNK1/Ki^rNK1 (hNK1): 1/6

Cc1cc(O)cc(C)c1C[C@H](N)C(=O)N(C)[C@H](C)C(=O)NCC(=O)N[C@@H](Cc1ccccc1)C(=O)N1CCC[C@H]1C(=O)N[C@@H](CC(C)C)C(=O)N[C@@H](Cc1c[nH]c2ccccc12)C(=O)NCc1cc(C(F)(F)F)cc(C(F)(F)F)c1 [AKG181, H-Dmt-D-NMeAla-Gly-Phe-Pro-Leu-Trp-NH-Bn(3′,5′-(CF3)2)]
Ki^hNK1/Ki^rNK1 (hNK1): 1/5

Cc1cc(O)cc(C)c1C[C@H](N)C(=O)N(C)[C@H](C)C(=O)N(C)CC(=O)N[C@@H](Cc1ccccc1)C(=O)N1CCC[C@H]1C(=O)N[C@@H](CC(C)C)C(=O)N[C@@H](Cc1c[nH]c2ccccc12)C(=O)NCc1cc(C(F)(F)F)cc(C(F)(F)F)c1 [AKG183, H-Dmt-D-NMeAla-NMeGly-Phe-Pro-Leu-Trp-NH-Bn(3′,5′-(CF3)2)]
Ki^hNK1/Ki^rNK1 (hNK1): 1/7

Cc1cc(O)cc(C)c1C[C@H](N)C(=O)N(C)[C@H](C)C(=O)NCC(=O)N(C)[C@@H](Cc1ccccc1)C(=O)N1CCC[C@H]1C(=O)N[C@@H](CC(C)C)C(=O)N[C@@H](Cc1c[nH]c2ccccc12)C(=O)NCc1cc(C(F)(F)F)cc(C(F)(F)F)c1 [AKG184, H-Dmt-D-NMeAla-Gly-NMePhe-Pro-Leu-Trp-NH-Bn(3′,5′-(CF3)2)]
Ki^hNK1/Ki^rNK1 (hNK1): 1/40

Cc1cc(O)cc(C)c1C[C@H](N)C(=O)N(C)[C@H](C)C(=O)N(C)CC(=O)N(C)[C@@H](Cc1ccccc1)C(=O)N1CCC[C@H]1C(=O)N[C@@H](CC(C)C)C(=O)N[C@@H](Cc1c[nH]c2ccccc12)C(=O)NCc1cc(C(F)(F)F)cc(C(F)(F)F)c1 [AKG185, H-Dmt-D-NMeAla-NMeGly-NMePhe-Pro-Leu-Trp-NH-Bn(3′,5′-(CF3)2)]
Ki^hNK1/Ki^rNK1 (hNK1): 1/21

Cc1cc(O)cc(C)c1C[C@H](N)C(=O)N[C@H](C)C(=O)NCC(=O)N[C@@H](Cc1ccc(Br)cc1)C(=O)N1CCC[C@H]1C(=O)N[C@@H](CC(C)C)C(=O)N[C@@H](Cc1c[nH]c2ccccc12)C(=O)NCc1cc(C(F)(F)F)cc(C(F)(F)F)c1 [AKG192, H-Dmt-D-Ala-Gly-Phe(4-Br)-Pro-Leu-Trp-NH-Bn(3′,5′-(CF3)2)]
Ki (MOR [1]): 5 nM
Log[IC50±] (μ) (MOR [1]): −7.96 ± 0.12
IC50 (MOR [2]): 463 ± 114 nM
Kb (NK1R; GPI/LMMP (NK1R) Ke (nM) ± S.E.M., antagonist activity): 23.4 ± 8.9 nM

Cc1cc(O)cc(C)c1C[C@H](N)C(=O)N[C@H](C)C(=O)NCC(=O)N[C@@H](Cc1ccc(I)cc1)C(=O)N1CCC[C@H]1C(=O)N[C@@H](CC(C)C)C(=O)N[C@@H](Cc1c[nH]c2ccccc12)C(=O)NCc1cc(C(F)(F)F)cc(C(F)(F)F)c1 [AKG193, H-Dmt-D-Ala-Gly-Phe(4-I)-Pro-Leu-Trp-NH-Bn(3′,5′-(CF3)2)]
Ki (MOR [1]): 6 nM
Log[IC50±] (μ) (MOR [1]): −7.88 ± 0.07
GPI (MOR) % at 1 uM (MOR [2]; at 1 uM): 41% at 1 uM

CC(C)C[C@H](NC(=O)[C@@H]1CCCN1C(=O)[C@H](Cc1ccccc1)N(C)C(=O)[C@H](Cc1ccccc1)NC(=O)[C@@H]1CCCN1C(=O)[C@@H](N)Cc1ccc(O)cc1)C(=O)N[C@@H](Cc1c[nH]c2ccccc12)C(=O)NCc1cc(C(F)(F)F)cc(C(F)(F)F)c1 [AKG224, H-Tyr-Pro-Phe-NMePhe-Pro-Leu-Trp-NH-Bn(3′,5′-(CF3)2)] (H-YPF[NMeF]PLW-{NH(3,5-(CF3)2-benzyl)})
Ki^hNK1/Ki^rNK1 (hNK1): 1/10

CC(C)C[C@H](NC(=O)[C@@H]1CCCN1C(=O)[C@H](Cc1ccc(O)cc1)NC(=O)CNC(=O)[C@H](Cc1ccccc1)NC(=O)[C@@H](C)NC(=O)[C@@H](N)Cc1ccc(O)cc1)C(=O)N[C@@H](Cc1c[nH]c2ccccc12)C(=O)N(C)Cc1cc(C(F)(F)F)cc(C(F)(F)F)c1 [QXP04] (H-Y[dA]FGYPLW-{NMeBn(3,5-(CF3)2)})
Ki (MOR [1]): 10 nM
Log[IC50±] (μ) (MOR [1]): −7.66 ± 0.05
Ki^μ/Ki^δ (MOR [1]): 1/7
GPI/MVD IC50 ratio (MOR [2]): 23/1
IC50 (MOR [2]): 389 ± 180 nM
GPI/LMMP (NK1R) Agonist (NK1R; agonist activity at the concentration in the cell): None at 1 uM
